Test system: Human peripheral blood mononuclear cells (PBMCs) as Responder cells, RPMI 1788 Stimulator cells
Assay: Mixed Lymphocyte Reaction (MLR) test
Type: cell-based
Conditions: Homo sapiens, RPMI-1788, lowest concentration giving 50% inhibition of the MLR; 6 days coculture, 3H-thymidine incorporation
Method: Human peripheral blood mononuclear cells (PBMCs) were isolated from buffy coats, obtained from healthy blood donors by Ficoll (Lymphoprep, Axis-Shield PoC AS, Oslo, Norway) density-gradient centrifugation. The cells at the Ficoll-plasma interface were washed three times and used as “Responder” cells. RPMI 1788 (ATCC, N^o CCL-156) cells were treated with mitomycin C (Kyowa, Nycomed, Brussel, Belgium) and used as “Stimulator” cells. Responder cells (0.12×10^6), Stimulator cells (0.045×10^6) and compounds (in different concentrations) were cocultured for 6 days in RPMI 1640 medium (BioWhittaker, Lonza, Belgium) supplemented with 10% fetal calf serum, 100 U/ml Geneticin (Gibco, LifeTechnologies, UK). Cells were cultured in triplicate in flat-bottomed 96-well microtiter tissue culture plates (TTP, Switzerland). After 5 days, cells were pulsed with 1 μCi of methyl-^3H thymidine (MP Biomedicals, USA), harvested 18 h later on glass filter paper and counted. Proliferation values were expressed as counts per minute (cpm), and converted to % inhibition with respect to a blank MLR test (identical but without added compound). […]

`Nc1nc(N2CCN(C(=O)COc3ccc(Br)cc3)CC2)c2nc(CCc3ccc(F)cc3)sc2n1` [Example 52, 1-(4-(5-amino-2-(4-fluorophenethyl)thiazolo[5,4-d]pyrimidin-7-yl)piperazin-1-yl)-2-(4-bromophenoxy)ethanone] was tested, and the IC50 was > 10000 nM.

For `Nc1nc(N2CCN(C(=O)COc3ccc(Cl)cc3)CC2)c2nc(SCc3ccccc3)[nH]c2n1` [Example 426, 1-(4-(2-amino-8-(benzylthio)-9H-purin-6-yl)piperazin-1-yl)-2-(4-chlorophenoxy)ethanone], the IC50 was 3280 nM.

For `CC(=O)N1CCN(c2nc(N)nc3oc(-c4ccc(F)cc4)nc23)CC1` [Example 191, 5-amino-2-(4-fluorophenyl)-7-(4-acetylpiperazin-1-yl)-oxazolo[5,4-d]pyrimidine], the IC50 was > 10000 nM.

`Nc1nc(N2CCN(C(=O)COc3ccc(F)cc3)CC2)c2cc(-c3ccccc3)sc2n1` [Example 370, 1-(4-(2-amino-6-phenylthieno[2,3-d]pyrimidin-4-yl)piperazin-1-yl)-2-(4-fluorophenoxy)ethanone] was tested, and the IC50 was 66 nM.

`Nc1nc(N2CCCN(C(=O)COc3ccc(Cl)cc3)CC2)c2cc(-c3ccccc3)sc2n1` [Example 334, 1-(4-(2-amino-6-phenylthieno[2,3-d]pyrimidin-4-yl)-1,4-diazepan-1-yl)-2-(4-chlorophenoxy)ethanone] was tested, and the IC50 was 8830 nM.

For `Nc1nc(N2CCN(C(=O)COc3ccc(Cl)cc3)CC2)c2nc(Cc3ccc(F)cc3)sc2n1` [Example 46, 1-(4-(5-amino-2-(4-fluorobenzyl)thiazolo[5,4-d]pyrimidin-7-yl)piperazin-1-yl)-2-(4-chlorophenoxy)ethanone], the IC50 was 700 nM.

`Nc1nc(N2CCN(c3ccc(Cl)cc3)CC2)c2nc(-c3ccc(F)cc3)[nH]c2n1` [Example 414, 6-(4-(4-chlorophenyl)piperazin-1-yl)-8-(4-fluorophenyl)-9H-purin-2-amine] showed an IC50 of 3870 nM.

`Nc1nc(N2CCN(C(=O)COc3ccc(Cl)cc3)CC2)c2nc(C3CCCCC3)sc2n1` [Example 120, 5-amino-7-[4-(4-chlorophenoxyacetyl)piperazin-1-yl]-2-cyclohexylthiazolo[5,4-d]pyrimidine] gave an IC50 of 830 nM.

With `Nc1nc(N2CCN(C(=O)COc3ccc(Cl)cc3)CC2)c2nc(C3CC3)[nH]c2n1` [Example 398, 1-(4-(2-amino-8-cyclopropyl-9H-purin-6-yl)piperazin-1-yl)-2-(4-chlorophenoxy)ethanone] the IC50 was 430 nM.

With `Nc1nc(N2CCN(CC(=O)Nc3nccs3)CC2)c2nc(-c3ccc(F)cc3)[nH]c2n1` [Example 417, 2-(4-(2-amino-8-(4-fluorophenyl)-9H-purin-6-yl)piperazin-1-yl)-N-(thiazol-2-yl)acetamide] the IC50 was > 10000 nM.

`O=C(COc1ccc(Cl)cc1)N1CCN(c2nc(-c3ccccc3)nc3sc(-c4ccc(F)cc4)cc23)CC1` [Example 352, 2-(4-chlorophenoxy)-1-(4-(6-(4-fluorophenyl)-2-phenylthieno[2,3-d]pyrimidin-4-yl)piperazin-1-yl)ethanone] was tested, and the IC50 was > 10000 nM.

In the case of `Nc1nc(N2CCN(C(=O)Cc3ccc(Cl)cc3)CC2)c2nc(CCc3cccs3)sc2n1` [Example 155, 5-amino-2-(2-thiophen-2-ylethyl)-7-(4-[2-(4-chloro-phenyl)acetyl]piperazin-1-yl)thiazolo[5,4-d]pyrimidine], the IC50 is reported as > 10000 nM.

Compound `Cc1cccc(NC(=O)N2CCN(c3nc(N)nc4oc(CCc5ccc(F)cc5)nc34)CC2)c1` [Example 196, 5-amino-2-[2-(4-fluorophenyl)ethyl]-7-(4-m-tolylcarbamoylpiperazin-1-yl)-oxazolo[5,4-d]pyrimidine] has an IC50 of 3970 nM.

Work on `COc1ccc(OCC(=O)N2CCN(c3nc(N)nc4sc(-c5ccccc5)cc34)CC2)cc1` [Example 369, 1-(4-(2-amino-6-phenylthieno[2,3-d]pyrimidin-4-yl)piperazin-1-yl)-2-(4-methoxyphenoxy)ethanone] yielded an IC50 of 72 nM.

`Nc1nc(N2CCN(c3nccs3)CC2)c2nc(CCc3ccc(F)cc3)sc2n1` [Example 140, 5-amino-2-[2-(4-fluorophenyl)ethyl]-7-(4-thiazol-2-yl-piperazine-1-yl)-thiazolo[5,4-d]pyrimidine] showed an IC50 of 8820 nM.

Compound `Nc1nc(N2CCN(C(=O)COc3ccc(F)cc3)CC2)c2nc(-c3ccc(F)cc3)sc2n1` [Example 233, 1-(4-(5-amino-2-(4-fluorophenyl)thiazolo[5,4-d]pyrimidin-7-yl)piperazin-1-yl)-2-(4-fluorophenoxy)ethanone] has an IC50 of 74 nM.

Compound `COc1ccc(OCC(=O)N2CCN(c3nc(N)nc4sc(CCc5ccc(OC)c(OC)c5)nc34)CC2)cc1` [Example 257, 1-(4-(5-amino-2-(3,4-dimethoxyphenethyl)thiazolo[5,4-d]pyrimidin-7-yl)piperazin-1-yl)-2-(4-methoxyphenoxy)ethanone] has an IC50 of 1140 nM.

For `COc1ccc(-c2nc3c(N4CCN(C(=O)COc5ccc(Cl)cc5)CC4)nc(N)nc3[nH]2)cc1OC` [Example 390, 1-(4-(2-amino-8-(3,4-dimethoxyphenyl)-9H-purin-6-yl)piperazin-1-yl)-2-(4-chlorophenoxy)ethanone], the IC50 was 530 nM.

With `Nc1nc(N2CCN(c3ccc(F)cc3)CC2)c2nc(-c3ccc(F)cc3)[nH]c2n1` [Example 415, 8-(4-fluorophenyl)-6-(4-(4-fluorophenyl)piperazin-1-yl)-9H-purin-2-amine] the IC50 was 4160 nM.

Work on `Nc1nc(N2CCN(C(=O)CCc3ccccc3)CC2)c2nc(-c3ccc(F)cc3)[nH]c2n1` [Example 438, 1-(4-(2-amino-8-(4-fluorophenyl)-9H-purin-6-yl)piperazin-1-yl)-3-phenylpropan-1-one] yielded an IC50 of 2580 nM.

Compound `Cc1ccc(NC(=O)N2CCN(c3nc(N)nc4sc(-c5ccc(F)cc5)nc34)CC2)cc1` [Example 42, 4-(5-amino-2-(4-fluorophenyl)-thiazolo[5,4-d]pyrimidin-7-yl)-N-p-tolylpiperazine-1-carboxamide] has an IC50 of 700 nM.

For `Cc1cccc(NC(=O)N2CCN(c3nc(N)nc4sc(-c5ccccc5)nc34)CC2)c1` [Example 220, 4-(5-amino-2-phenylthiazolo[5,4-d]pyrimidin-7-yl)-N-m-tolylpiperazine-1-carboxamide], the IC50 was 170 nM.

For `Nc1nc(N[C@H]2CCN(C(=O)COc3ccc(Cl)cc3)C2)c2nc(CCc3ccc(F)cc3)sc2n1` [Example 147, 5-amino-2-[2-(4-fluorophenyl)ethyl]-7-(1-(4-chlorophenoxyacetyl)pyrrolidin-3-(S)-ylamino)-thiazolo[5,4-d]pyrimidine], the IC50 was 4520 nM.

`Nc1nc(N2CCN(C(=O)COc3ccc(Cl)cc3)CC2)c2nc(CCc3ccccc3)sc2n1` [Example 118, 5-amino-7-[4-(4-chlorophenoxyacetyl)piperazin-1-yl]-2-(2-phenylethyl)thiazolo[5,4-d]pyrimidine] gave an IC50 of 860 nM.

Work on `Nc1nc(N2CCN(C(=O)COc3ccc(Cl)cc3)CC2)c2nc(-c3ccc(Cl)cc3)[nH]c2n1` [Example 392, 1-(4-(2-amino-8-(4-chlorophenyl)-9H-purin-6-yl)piperazin-1-yl)-2-(4-chlorophenoxy)ethanone] yielded an IC50 of 540 nM.

Work on `Nc1nc(N2CCN(CCOc3ccccc3)CC2)c2nc(CCc3ccc(F)cc3)sc2n1` [Example 149, 5-amino-2-[2-(4-fluorophenyl)ethyl]-7-(4-(2-phenoxyethyl)piperazin-1-yl)-thiazolo[5,4-d]pyrimidine] yielded an IC50 of 5760 nM.

For `CC(C)(C)c1nc2c(N3CCN(C(=O)COc4ccc(Cl)cc4)CC3)nc(N)nc2[nH]1` [Example 399, 1-(4-(2-amino-8-tert-butyl-9H-purin-6-yl)piperazin-1-yl)-2-(4-chlorophenoxy)ethanone], the IC50 was 6310 nM.

`CC(=O)c1ccc(OCC(=O)N2CCN(c3nc(N)nc4sc(CCc5ccc(F)cc5)nc34)CC2)cc1` [Example 227, 2-(4-acetylphenoxy)-1-(4-(5-amino-2-(4-fluorophenethyl)thiazolo[5,4-d]pyrimidin-7-yl)piperazin-1-yl)ethanone] was tested, and the IC50 was 610 nM.

Work on `Cc1cccc(NC(=O)N2CCN(c3nc(N)nc4sc(-c5ccccc5)cc34)CC2)c1` [Example 330, 4-(2-amino-6-phenylthieno[2,3-d]pyrimidin-4-yl)-N-m-tolylpiperazine-1-carboxamide] yielded an IC50 of 930 nM.

`Nc1nc(N2CCN(CC(=O)N3CCOCC3)CC2)c2nc(-c3ccc(F)cc3)sc2n1` [Example 38, 2-(4-(5-amino-2-(4-fluorophenyl)thiazolo[5,4-d]pyrimidin-7-yl)piperazin-1-yl)-1-morpholinoethanone] was tested, and the IC50 was 4800 nM.

For `CN(C(=O)CN1CCN(c2nc(N)nc3[nH]c(-c4ccc(F)cc4)nc23)CC1)c1ccccc1` [Example 413, 2-(4-(2-amino-8-(4-fluorophenyl)-9H-purin-6-yl)piperazin-1-yl)-N-methyl-N-phenylacetamide], the IC50 was > 10000 nM.

With `C[S+]([O-])c1nc2c(N3CCN(C(=O)COc4ccc(Cl)cc4)CC3)nc(N)nc2s1` (stereo not shown) [Example 126, 5-amino-7-[4-(4-chlorophenoxyacetyl)piperazin-1-yl]-2-methylsulfinyl-thiazolo[5,4-d]pyrimidine] the IC50 was 2650 nM.

`Nc1nc(N2CCN(C(=O)c3ccc(Cl)cc3)CC2)c2nc(CCc3ccc(F)cc3)oc2n1` [Example 195, 5-amino-2-[2-(4-fluorophenyl)ethyl]-7-(4-[4-chlorobenzoyl]piperazin-1-yl)-oxazolo[5,4-d]pyrimidine] was tested, and the IC50 was > 10000 nM.

For `CC(C)(Oc1ccc(Cl)cc1)C(=O)N1CCN(c2nc(N)nc3sc(-c4ccc(F)cc4)nc23)CC1` [Example 237, 1-(4-(5-amino-2-(4-fluorophenyl)thiazolo[5,4-d]pyrimidin-7-yl)piperazin-1-yl)-2-(4-chlorophenoxy)-2-methylpropan-1-one], the IC50 was > 10000 nM.

Source: patent US9221822B2, “Thiazolopyrimidine modulators as immunosuppressive agents” (Katholieke Universiteit Leuven, K.U.Leuven R&D, priority 2009, dated 2015)
